The values that follow come from US9624211B2, “Anti-cancer compounds” (Board of Regents, The University of Texas System, priority 2013, dated 2017).

Data set [1] relates to p27 and p21 protein expression. The data set is described as follows: Immunoblotting of SCF substrates in prostate cancer cells. It is filed as cell-based. The text has this:
(§1) Cells were lysed with RIPA buffer in the presence of protease inhibitor cocktail (Roche). The following antibodies were used for immunoblotting analysis: anti-Skp2 (Invitrogen), anti-Xpress (Invitrogen), anti-p27 (BD transduction laboratories), anti-p21 (Santa Cruz), anti-β-actin (Sigma), anti-α-tubulin (Sigma), anti-phospho-Akt (Thr308) (Cell Signaling), anti-phospho-Akt (Ser473) (Cell Signaling), and anti-HA (Convance). For immunohistochemistry, tissues were fixed in 10% formalin and embedded in paraffin in accordance with standard procedures. Sections were stained with anti-Skp2 (Invitrogen), anti-p27 (Epitomics), anti-phosphoAkt (SerS473) (Cell signaling), anti-Glut1 (Abcam), and anti-Ki67 (Abcam). TUNEL staining was performed by using in situ cell death detection kit-POD (Roche).
(In general: In western blotting, separated proteins are transferred to a membrane and probed.)

The test system of data set [2] is H3255 (lung). Description: Cell survival assay, H3255. In kind it is cell-based, human. The protocol:
(§2) For Skp2 inhibitor administration, 5-10×10^3 of cells with were seeded in 12 wells in triplicate, 24 h later, treated with compound #25 (refreshed every two days). Four days later, cells were harvested, stained with trypan blue, and viable cells were counted directly under the microscope using hemocytometer. For doxorubicin treatment, 8×10^3 of PC3 cells with were seeded in 12 wells in triplicate, 24 h later, treated with various dose of compound #25 in the presence or absence of 10 nM doxorubicin or 25 ng/ml cyclophosphamide for four and three days, respectively (refreshed every two days). After treatment, cells were harvested, stained with trypan blue, and viable cells were counted directly under the microscope using hemocytometer. Cellular senescence was determined by assessing SA-b-gal activity using senescence detection kit according to manufacturers' standard procedures (Calbiochem).

Data set [3] has as its system normal prostate epithelial PNT1A cells. The data set is described as follows: Cell survival assay, PNT1A. In kind it is cell-based. The protocol:
as §2

The test system of data set [4] is Skp2 protein expression. Description: Skp2 protein expression, immunoblotting. In kind it is cell-based. As to conditions: higher dosage (20 μM).
From the text: as §1

Data set [5] has as its system Skp2 Trp97Ala and Asp98Ala mutants. The data set is described as follows: In vitro binding of compound to GST-Skp2 mutants by LC-MS/MS. As to conditions: preexisting Skp2-Skp1 complex. Here is the method:
To corroborate this notion, the in vitro binding assay was performed to compare the binding affinity of compound #25 to WT Skp2 and Skp2 mutants (Trp97Ala and Asp98Ala) using LC-MS/MS analysis. Of note, since the nature of recombinant Skp2 protein was unstable in the absence of Skp1 (Li et al., 2005), the GST-Skp2 WT, GST-Skp2 Trp97Ala and GST-Skp2Asp98Ala mutants subjected to LC-MS/MS analysis were co-expressed, purified and preformed complex with Skp1 (FIG. 10A).

Data set [6] concerns prostate cancer cells. The data set is described as follows: Cell apoptosis assay (Annexin-V, flow cytometry). In kind it is cell-based. The protocol:
Prostate cancer cells were treated with vehicle (DMSO) or Skp2 inhibitor for 3 days, and collected and labeled with Annexin-V-FITC, followed by flow cytometry analysis. The Annexin-V+ and […] cells indicates apoptotic cell population (Q4).
(In general: Flow cytometry measures light scatter and fluorescence of single cells or particles in a stream.)

Data set [7] concerns ERK activation. The data set is described as follows: ERK activation after EGF, immunoblotting. It is filed as cell-based.
Data set [8] has as its target T1, Skp2 Trp127Ala mutant (Homo sapiens, UniProt Q13309, W127A).
T1 construct: expressed in transfected cells; host or cells: 293T
Description: In vivo p27 ubiquitination assay, Skp2 Trp127Ala mutant. In kind it is cell-based. The protocol:
(§3) In vivo and in vitro ubiquitination assays were performed as described with modification (Lin et al., 2009; Yang et al., 2009). For in vitro ubiquitination assay, recombinant GST-Akt proteins were expressed, purified and eluted from the bacterial lysates of BL21 competent cells. Flag-Skp2 SCF complex were expressed in 293T cells, immunoprecipitated by anti-Flag antibody, and eluted from Protein A/G beads using Flag peptides according to manufacturers' standard procedures. Purified GST-Akt and Flag-SCF proteins were incubated for 3 h at 37° C. in the absence and presence of Skp2 inhibitor. After incubation, protein mixtures were diluted in E1A Buffer and the supernatant fluid was precleared with Protein A/G beads for 1 h, and immunoprecipitated overnight with anti-Flag antibody, after which Protein A/G beads were added for an additional 1 h. Beads were washed 4 times with E1A Buffer. Proteins were eluted in SDS-sample buffer and subjected to immunoblotting analysis. For in vivo ubiquitination assay, 293T cells were transfected with the indicated plasmids and cultured in the absence or presence of Skp2 inhibitor for 48 h. 6 h before harvest, cells were cultured in the presence of MG132. After cell harvest, cells were lysed by the denatured buffer (6M guanidine-HCl, 0.1M Na2HPO4/NaH2PO4, 10 mM imidazole). […]

The test system of data set [9] is LNCaP cells. The data set is described as follows: Cell survival assay, LNCaP. It is filed as cell-based, human. Here is the method:
as §2

Data set [10] has as its system prostate cancer cells. Description: Cell survival assay in combination with Dox or CPA. In kind it is cell-based. As to conditions: combination with doxorubicin or cyclophosphamide. The protocol: as §2
The test system of data set [11] is Skp2 Trp97Ala and Asp98Ala mutants binding to Skp1. The data set is described as follows: In vitro Skp2-Skp1 binding assay with Skp2 mutants. The following applies: FIG. 2D. Here is the method: For in vitro GST-Skp1 and Skp2 interaction, GST-Skp1 proteins purified from the bacterial lysates of BL21 competent cells transformed with pGEX-4X1-Skp1 using the Glutathione-Agarose beads according to the manufacturer's standard procedures. The GST-Skp1 proteins bound to glutathione Sepharose beads (Amersham Biosciences) were then incubated with the in vitro translated [35^S]-Skp2 for 2 hours at 4° C. in the interaction buffer with or without compound #25 (20 mM HEPES, PH 7.9, 150 mM KCl. 5 mM EDTA, 0.5 mM DTT, 0.1% (v/v) Nonidet p-40, 0.1% (w/v) BSA, 1 mM PMSF, and 10% Glycerol), washed by the NETN buffer (20 mM Tris, pH 8.0, 100 mM NaCl, 6 mM MgCl2, 1 mM EDTA, 0.5% Nonidet P-40, 1 mM DTT, 8% glycerol, 1 mM PMSF) 4 times, and subjected to 8% SDS-PAGE, followed by autoradiography.

In data set [12] the test system is A549 xenograft tumors. Description: A549 tumor xenograft in nude mice. In kind it is in vivo. The following applies: IP injection. Here is the method: Nude mice bearing PC3 or A549 xenograft tumors (around 100 mm^3) were administrated with vehicle or 80 mg/kg compound #25 on a daily basis. Tumor size was measured weekly with a caliper, and tumor volume was determined with the standard formula: L×W2×0.52, where L is the longest diameter and W the shortest diameter.

The subject of data set [13] is tumorigenic lung cancer cells. The data set is described as follows: Cell survival assay, lung cancer cells and normal fibroblasts. It is filed as cell-based. Here is the method:
as §2

In data set [14] the test system is Skp2 Trp97Ala and Asp98Ala mutants. Description: In vivo p27 ubiquitination assay, Skp2 Trp97Ala and Asp98Ala mutants. It is filed as cell-based. The protocol: as §3

T1 sequence (Q13309 whole entry W127A): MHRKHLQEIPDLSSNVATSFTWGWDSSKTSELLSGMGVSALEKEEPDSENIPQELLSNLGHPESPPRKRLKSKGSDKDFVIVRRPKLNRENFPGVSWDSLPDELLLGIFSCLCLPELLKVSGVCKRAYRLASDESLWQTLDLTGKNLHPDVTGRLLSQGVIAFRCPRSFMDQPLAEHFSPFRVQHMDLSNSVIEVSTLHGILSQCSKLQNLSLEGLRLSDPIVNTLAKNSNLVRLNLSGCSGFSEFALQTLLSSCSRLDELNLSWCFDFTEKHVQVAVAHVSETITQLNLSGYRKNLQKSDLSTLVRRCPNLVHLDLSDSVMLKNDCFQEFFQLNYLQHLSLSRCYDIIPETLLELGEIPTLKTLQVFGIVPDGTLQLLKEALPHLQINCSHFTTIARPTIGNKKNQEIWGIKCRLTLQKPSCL

With `CCc1cc2c(=O)c(-c3nc4ccccc4s3)coc2c(CN2CCCCC2)c1O` [compound #25, 3-(1,3-benzothiazol-2-yl)-6-ethyl-7-hydroxy-8-(1-piperidinylmethyl)-4H-chromen-4-one], the “stabilization/induction of SCF substrates” value in [1] (Skp2, Fbw7 and β-TrCP substrates, FIGS. 3E and 11A) is reported as “selectively stabilized Skp2 substrates”. Moreover, in [1] (prostate cancer cells), the “endogenous p27 and p21 protein expression” value is “induced endogenous p27 and p21 protein expression”. In addition, the cell viability result is “potent suppressive effect on viability” in [2], “only slightly affected” in data set [3] and “potent effects on cell viability” in [9]. Also, in [4], the Skp2 protein expression entry is given as “downregulated Skp2 protein expression”. Besides, in data set [5], the “binding to Trp97Ala and Asp98Ala mutants” value is on record as “failed to interact”. Besides, the cell apoptosis entry in data set [6] is listed as “elicited cell apoptosis”. Also, the ERK activation result in [7] is on record as “no noticeable impact”. The “E3 ligase activity of Skp2 Trp127Ala mutant” value in data set [8] is recorded as “abrogated E3 ligase activity”. Further, the “sensitization to Dox and CPA” value in data set [10] was “increased the efficacy of Dox and CPA”. The “binding of Skp2 Trp97Ala and Asp98Ala mutants to Skp1” value in data set [11] is on record as “unable to inhibit”. In [12], the “lung tumor growth in vivo” value is given as “potent effect”. The “cytotoxicity, lung cancer cells over lung fibroblast” value in data set [13] was “favorably triggered cytotoxicity in tumorigenic lung cancer cells over non-tumorigenic lung fibroblast”. Moreover, in data set [14], the “E3 ligase activity of Skp2 Trp97Ala and Asp98Ala mutants” value was “failed to inhibit”.
